Test results from patent publication US10912776B2, “Methods of treating cancer” (Corvus Pharmaceuticals, Inc., priority 2015, dated 2021).
Several values for one entry are separate records, joined by “and”; a condition that tells them apart may be missing. Identical values can stand only once. Entries after “also recorded” stand apart in the source; their conditions may differ.

How the values were obtained:
MC38 cells = assay: XTT cell viability/proliferation, MC38; assay type: cell-based, mouse; conditions: 10 µM to 1 pM, 24 hours
Protocol: (§1) Staurosporine, a well-characterized inducer of apoptosis, was included as a positive control for cell death. Cell viability/proliferation was measured by XTT. In this assay, XTT salts are cleaved by metabolically active (viable) cells, thereby producing a colorimetric change in the culture media that can be quantified by measuring absorbance at 405 nm and 620 nm on a spectrophotometer.

CT26 cells = assay: XTT cell viability/proliferation, CT26; assay type: cell-based, mouse; conditions: 10 µM to 1 pM, 24 hours
Protocol: as §1

EL4 cells [1] = assay: XTT cell viability/proliferation, EL4; assay type: cell-based, mouse; conditions: 10 µM to 1 pM, 24 hours
Protocol: as §1

EL4 cells [2] = assay: Syngeneic EL4 mouse lymphoma model; assay type: in vivo; conditions: 10, 30, 100 mg/kg daily oral gavage
Protocol: Syngeneic C57BL/6 female mice (8-10 weeks old) were injected (via subcutaneous route) with EL4 cells.

MC38 colon cancer cells = assay: Syngeneic MC38 mouse colon carcinoma model, CPI-444 dose response and rechallenge; assay type: in vivo
Text: 100% protected from rechallenge. […] These mice were challenged with the new engraftment of MC38 tumor cells.
MC38 colon cancer cells were subcutaneously injected onto the backs of syngeneic C57BL/6 mice.

[3] = tested on: MC38 mouse colon cancer cells; assay: Syngeneic MC38 mouse colon cancer model, CPI-444 in combination with anti-PD-L1; assay type: in vivo
Text: Combo eliminates tumors in 50% of mice. […] Treatment continued for 12 days.
FIGS. 16A and 16B: MC38 Model: Established tumors eliminated in 8/9 mice.
Treatment continued for more than 9 days (FIG. 23C). […] T cell depletion was verified by flow analysis. FIGS. 23A and 23B show the tumor volume at different time points since engraftment for the dosing cohorts.
Treatment continued for 12 days. […] T cell depletion was verified by flow analysis. FIGS. 23A and 23B show tumor volume at different time points since engraftment for the dosing cohorts.
Treatment continued for more than 9 days. […] T cell depletion was verified by flow analysis. FIGS. 23A and 23B show tumor volume at different time points since engraftment for the dosing cohorts.

[4] = Phase 1/1b clinical trial in solid tumor patients (safety, efficacy, blood biomarkers); assay type: in vivo, human
Protocol: FIGS. 19A and 19B: T Cell activation in treated subjects. Whole blood was collected on Day 1 of Cycles 1, 2, 4 & 8 for flow analysis. The percentage of CD4 and CD8 T cells that stained PD-1+(FIG. 19A) or CD45RA− (memory/effector cells) (FIG. 19B) is shown. Each line represents a single subject across time.
Whole blood was collected on Day 1 of Cycles 1 and 2 and PBMCs were prepared. DNA was extracted from PBMCs and sequenced for TCRβ repertoire by Adaptive Biotechnologies. […] Morisita Index measures T cell repertoir similarity comparing pre- and post-dose PBMCs. A Morisita Index of 1 is equal to identity, indicating no longitudinal change. Morisita Index distribution in single agent and combination cohorts (FIG. 20B). Graph showing Morisita Index by cohort (FIG. 20C). […] Changes were driven predominantly by TCR clone expansion (clonality).
After a dose selection stage, pts are treated in 10 disease specific cohorts (5 single agent and 5 combination). Cohorts may be expanded based on response criteria: complete response, partial response or stable disease (SD). Biomarkers are evaluated including immune cells by flow cytometry in peripheral blood and pre/post treatment tumor biopsies as well as adenosine pathway modulation by immunohistochemistry and gene expression.
In step 1 of the trial, patients were dosed with either 100 mg BID for 14 days out of a 28 day cycle, 100 mg BID for 28 days, 200 mg QD for 14 days or 50 mg or 100 mg BID for 14 days in combination with […]® (840 mg Q2W). Pharmacodynamic analysis was conducted on peripheral blood cells to inform dose selection. Step 1 of Phase1/1b was fully enrolled (n=48) and dose was selected (100 mg BID) based on pharmacodynamic analysis of A2AR pathway.

[5] = non-oncology indications; 75 subjects; cited from earlier work
A2AR [6] = target: T1, A2AR (Homo sapiens, UniProt P29274); assay: pERK levels in human CD4+ T cells after TCR cross-linking; conditions: NECA 1 μM
A2AR [7] = target: T1, A2AR; assay: NECA-induced phospho-CREB in fresh PBMCs (B cell population); conditions: primarily B cell population
[8] = tested on: CT26 mouse colon cancer cells; conditions: CPI-444 100 mg/kg oral; anti-PD-1 100 ug/mouse i.p.
Text: CT26 mouse colon cancer cells were engrafted onto the back of syngeneic male Balb/c mice. […] Treatment continued for 12 days.

A2AR [9] = target: T1, A2AR; assay: cAMP production in primary human T cells stimulated with NECA (LANCE Ultra cAMP); assay type: cell-based; design: Blood samples were derived from patients and processed using the following protocol; endogenous in cells; host or cells: whole blood B cells and T cells of treated subjects
Protocol: Adenosine signaling through A2AR leads to increases in the levels of cAMP.
T cells were isolated from human PBMC by negative selection and activated via CD3/CD28 stimulation for 48 hours to induce A2AR expression. Stimulated T cells were then “rested” for 24 hours by removal of CD3/CD28 stimulation in order to minimize background levels of cAMP.

A2AR [10] = target: T1, A2AR; assay: IL-2 and IFNγ secretion from activated primary human PBMCs (AlphaLISA); assay type: cell-based; design: Blood samples were derived from patients and processed using the following protocol; endogenous in cells; host or cells: whole blood B cells and T cells of treated subjects; conditions: CPI-444 1 μM; NECA or CGS21680 1 μM; anti-CD3/anti-CD28 48 hours
Protocol: Purified anti-CD3 and anti-CD28 monoclonal antibodies (1 ug/ml) were then added to activate T cells for 48 hours.
Purified anti-CD3 and anti-CD28 monoclonal antibodies (1 ug/ml) were then added to activate T cells for 48 hours. In this study, AlphaLISA assays (PerkinElmer) analyzed on an EnVision MultiLabel Reader were used to measure cytokine release according to the manufacturer's instructions.

A2AR [11] = target: T1, A2AR; assay: NECA-induced pCREB in whole blood B cells and T cells of treated subjects (flow cytometry); assay type: in vivo; design: Blood samples were derived from patients and processed using the following protocol; endogenous in cells; host or cells: whole blood B cells and T cells of treated subjects
Protocol: Control samples were treated with phorbol myristate acetate (PMA).
[…] control samples were treated with phorbol myristate acetate (PMA).
On day 14, blood was collected prior to dosing (0 hr, trough) and for a time course post-dose (1.5, 3, 5.5, 8 hr) (FIGS. 26-28). The level of signaling was determined and the percent inhibition on Day 14 compared to Day 1 pre-treatment was calculated.

T1 sequence (P29274 whole entry): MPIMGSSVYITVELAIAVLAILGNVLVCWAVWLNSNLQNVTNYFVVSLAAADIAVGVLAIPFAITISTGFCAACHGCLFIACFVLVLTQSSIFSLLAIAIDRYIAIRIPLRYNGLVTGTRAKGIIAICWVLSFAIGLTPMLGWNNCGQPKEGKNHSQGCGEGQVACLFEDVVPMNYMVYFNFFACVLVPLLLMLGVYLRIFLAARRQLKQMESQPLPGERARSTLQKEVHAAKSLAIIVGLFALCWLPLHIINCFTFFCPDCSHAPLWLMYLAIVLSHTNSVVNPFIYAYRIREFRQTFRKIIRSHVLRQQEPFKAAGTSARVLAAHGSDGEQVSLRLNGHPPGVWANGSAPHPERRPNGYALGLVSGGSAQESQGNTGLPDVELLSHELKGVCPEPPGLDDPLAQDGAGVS

Cc1ccc(-c2nc(N)nc3c2nnn3Cc2cccc(COC3CCOC3)n2)o1 (stereo not drawn) [CPI-444]
Specific Absorbance (XTT cell viability/proliferation) (MC38 cells): No significant decrease in the Specific Absorbance
Specific Absorbance (XTT cell viability/proliferation) (CT26 cells): No significant decrease in the Specific Absorbance
Specific Absorbance (XTT cell viability/proliferation) (EL4 cells [1]): No significant decrease in the Specific Absorbance
tumor growth in regional lymph nodes (number and size of enlarged nodes) (EL4 cells [2]): significant dose-dependent inhibition of tumor growth within regional lymph nodes; also recorded: significant, dose-dependent decrease in the number and size of enlarged regional lymph nodes; also recorded: Inhibits EL4 Tumor Growth In Regional Lymph Nodes
tumor growth (MC38 colon cancer cells; 1 mg/kg daily oral gavage for 28 days): did not inhibit tumor growth
tumor growth (MC38 colon cancer cells; 10 mg/kg daily oral gavage for 28 days): significantly inhibits the growth; also recorded: significant inhibition of tumor growth
tumor growth (MC38 colon cancer cells; 100 mg/kg daily oral gavage for 28 days): significantly inhibits the growth; also recorded: significant inhibition of tumor growth
mice with tumors eliminated (MC38 colon cancer cells; CPI-444 dose response study): 30%
complete tumor regression (MC38 colon cancer cells; all cohorts (1, 10, 100 mg/kg)): complete tumor regression was observed in a subset of mice within all cohorts
tumor growth after rechallenge with MC38 cells (MC38 colon cancer cells; cured mice, no additional CPI-444 treatment): fully inhibited; also recorded: fully rejected in all 9 mice
inhibition of tumor growth (dose response) (MC38 colon cancer cells; daily CPI-444 1, 10, 100 mg/kg): dose-dependent inhibition of tumor growth; also recorded: Inhibits Growth of MC38 Tumors
mice protected from rechallenge (MC38 colon cancer cells; new engraftment of MC38 cells, no additional CPI-444 treatment): 100%
reoccurrence during additional 6 weeks monitoring (MC38 colon cancer cells; nine mice with complete tumor growth inhibition): No tumor growth was observed
tumor eradication ([3]; CPI-444 100 mg/kg from Day 0, anti-PD-L1 200 ug/mouse): not completely eradicated
tumor growth ([3]; CPI-444 100 mg/kg oral from Day 0 for 12 days, anti-PD-L1 mAb 10F.9G2 200 ug/mouse i.p. days 7, 10, 13, 16): inhibition of tumor growth
dependence of efficacy on CD8+ T cells (T cell depletion with Anti-mCD4 / Anti-mCD8) ([3]; CPI-444 100 mg/kg, anti-PD-L1 200 ug/mouse): CD8+ T cells are required for the efficacy
mice with tumors eliminated ([3]; FIGS. 14A and 14B title): 30%
levels of immune checkpoints (GITR, OX40, LAG3) on tumor infiltrating lymphocytes and circulating T cells ([3]; mouse, in vivo): modulated
first efficacy assessment by CT ([4]; 2 pts (1 combination and 1 single agent), unconfirmed at 2 months): both demonstrated SD
tolerability / treatment related adverse events ([4]; 7 pts treated to date): well tolerated with no Grade 3 or 4 treatment related adverse events; also recorded: well tolerated
tumor response ([4]; Nivolumab-refractory lung cancer patient, 100 mg po BID×28 days/cycle): Tumor regression
TCR repertoire changes in peripheral blood ([4]; TCRβ sequencing of PBMCs, Day 1 of Cycles 1 and 2): TCR repertoire changes were induced; also recorded: robust changes in TCR repertoire in some patients
activated (PD-1+) CD8 cell frequencies in blood ([4]; flow analysis of whole blood): Increases in activated CD8 cell frequencies
memory (CD45RA−) cell frequencies in blood ([4]; flow analysis of whole blood): increases
T cell clone expansion / clonality ([4]; single agent CPI-444): Expansion of pre-existing and new T cell clones; also recorded: increased clonality
increase in PD-1+CD8+ cells in peripheral blood compared to baseline ([4]; the two pts with SD): 1.7 fold and 2.4 fold
tolerability [5]: well tolerated; also recorded: well tolerated with no significant adverse events noted
pERK levels / ERK signaling in CD4+ T cells in the presence of NECA (A2AR [6]): restored pERK levels in a dose-dependent manner; also recorded: Restores pERK
inhibition of NECA-induced CREB phosphorylation (A2AR [7]): completely inhibited; also recorded: Prevents pCREB Induction in B Cells
tumor eradication / elimination [8]: not completely eradicated
cAMP production upon NECA stimulation, CPI-444 dose dependence (A2AR [9]; FIG. 6): prevented cAMP production upon NECA stimulation in a dose-dependent manner; also recorded: Inhibits cAMP Production
production of cAMP upon NECA treatment (A2AR [9]; all levels of NECA tested (10^-5 to 10^-9 M), 10 minutes): completely blocked the production of cAMP
IFNγ secretion in presence of A2AR agonist (A2AR [10]): restored IL-2 and IFNγ secretion back to levels observed in the absence of exogenous adenosine signaling
IL-2 secretion in presence of A2AR agonist (A2AR [10]): restored IL-2 and IFNγ secretion back to levels observed in the absence of exogenous adenosine signaling
inhibition of NECA-induced pCREB (A2AR [11]; 50 mg BID, Day 14): Variable inhibition; also recorded: not high enough for sustained inhibition
change in pCREB percent inhibition between trough (0 hr) and peak (3 hr) (A2AR [11]; 100 mg BID): Little fluctuation from trough to peak
patients with complete and sustained inhibition of NECA-induced pCREB (A2AR [11]; 100 mg BID single agent, Day 14): 7 of 7
inhibition of pCREB / A2AR pathway (A2AR [11]; 100 mg BID, Day 14): high pCREB inhibition at trough and near complete inhibition after taking their morning dose; also recorded: highest pCREB inhibition at trough and near complete inhibition after taking their morning dose
inhibition of NECA-induced pCREB (A2AR [11]; 200 mg QD, Day 14): Variable inhibition; also recorded: achieves high peak levels but is not maintained at trough; also recorded: partial inhibition; also recorded: attenuated
CPI-444 plasma levels with near complete inhibition of pCREB in B cells (A2AR [11]; B cells): greater than 2,000 ng/mL
CPI-444 plasma levels with near complete inhibition of pCREB in CD4+ T cells (A2AR [11]; T cells): greater than 2,000 ng/mL
CPI-444 exposures at which the A2AR pathway is completely inhibited (A2AR [11]; plasma CPI-444): greater than 2000 ng/mL
